Three compounds from US9737559B2, “Synergistic anti-diabetic compositions” (Ozstar Therapeutics Pty Ltd, priority 2011, dated 2017) can be followed below.

Type in all cases: in vivo, human
The test system of assay [1] is patient with T2DM. The assay is described as follows: Gliclazide/inulin combination therapy, extended case report: FBG, HA1C and lipid profiles. As to conditions: Gliclazide 30 mg once daily for nearly a decade, before inulin. An excerpt: This patient began the combination therapy with a commercially available inulin (Cl) as previously described in PCT/AU2011/000622, the contents of which are incorporated herein in their entirety. Various blood parameter measurements were as described PCT/AU2011/000622.

For assay [2], the system named is patient with T2DM. The assay is described as follows: Glimepiride/inulin combination therapy, T2DM case report, FBG. The protocol:
Doctor recommended diet-only treatment. […] The dose was increased in a 1 mg increment and currently this patient is taking 4 mg once daily Glimepiride. [table] Blood sugar level was determined using Accu-Chek Performa (Roche, Mannheim, Germany) device (CAT/TYP 04680464003 mmol/L and 55405079196) according to manufacturer instructions. During baseline measurements of FBG levels, patient was on Glimepiride at the dose of 4 mg once daily.

Assay [3] concerns patient with T2DM. Put plainly: Glipizide/inulin combination therapy, T2DM case report, FBG. The protocol:
person, with body mass index of 29 classified as overweight, with the family history of T2DM.
[…] the patient was diagnosed with T2DM. Doctor recommended diet-only treatment. […] due to increased FBG levels the patient was treated with Glipizide (5 mg/day, 5 mg once daily). The dose was increased in a 5 mg increment and currently this patient is taking 15 mg/day, 5 mg three times a day, Glipizide.
Blood sugar level was determined using Accu-Chek Performs (Roche, Mannheim, Germany) device (CAT/TYP 04680464002 mmol/L and 55403057614) according to manufacturer instructions.
During baseline measurements of FBG level, patient was on Glipizide at the dose of 15 mg per day.
inulin introduced at 3 g/day (1 g with each meal, 3 times a day) for one week. Inulin amount was increased to 6 g/day (2 g with each meal, 3 times a day) at week 2, 9 g/day (3 g with each meal, 3 times a day) at week 3 and 12 g/day (4 g with each meal, 3 times a day) at week 4.
Patient continued taking inulin with meal at 4 g/meal (12 gr/day total).

With `Cc1ccc(S(=O)(=O)NC(=O)NN2CC3CCCC3C2)cc1` (centres unmarked) [Gliclazide], the blood glucose levels entry in the assay on patient with T2DM [1] is recorded as “above 9 mmol/L”. `CCC1=C(C)CN(C(=O)NCCc2ccc(S(=O)(=O)NC(=O)N[C@H]3CC[C@H](C)CC3)cc2)C1=O` [Glimepiride]: the FBG at baseline with patient with T2DM [2] (Glimepiride 4 mg once daily, no inulin, June 2011) was about 8 mmol/L. In the assay with patient with T2DM [2] (Glimepiride monotherapy, a couple of years prior to inulin), the “FBG level prior to inulin combination therapy” value is reported as “above 7 mmol/L”. As to `Cc1cnc(C(=O)NCCc2ccc(S(=O)(=O)NC(=O)NC3CCCCC3)cc2)cn1` [Glipizide], the FBG at baseline in the assay with patient with T2DM [3] (Glipizide 15 mg per day, no inulin, July 2011) was about 6.5 mmol/L. The “FBG level prior to inulin combination therapy” value with patient with T2DM [3] (Glipizide monotherapy, a couple of years prior to inulin) was “around 7 mmol/L”.
